Paper PMC4474874, “Effect of JAK Inhibitors on Release of CXCL9, CXCL10 and CXCL11 from Human Airway Epithelial Cells” (PLoS ONE, 2015)
pIC50: −log10 of the molar value. Read-outs that look alike come from different tables or passages of the source.

Columns and labels:
IKKb = system: IKKb; parameters: method as in PMID 18094329; settings: inactive or IC50 >30μM; read-out: IC50 against IKKb; cited from earlier work
INSR = system: INSR; parameters: method as in PMID 18094329; settings: inactive or IC50 >30μM; read-out: IC50 against INSR; cited from earlier work
JAK3 [1] = system: JAK3; parameters: method as in PMID 18094329; settings: read-out: IC50 against JAK3; cited from earlier work
MET = system: MET; parameters: method as in PMID 18094329; settings: inactive or IC50 >30μM; read-out: IC50 against MET; cited from earlier work
JAK2 = system: JAK2; parameters: method as in PMID 18094329; settings: cellular assay; cited from earlier work
cdk2 = system: cdk2; parameters: method as in PMID 18094329; settings: inactive or IC50 >30μM; read-out: IC50 against cdk2; cited from earlier work
CHK1 = system: CHK1; parameters: method as in PMID 18094329; settings: inactive or IC50 >30μM; read-out: IC50 against CHK1; cited from earlier work
PDK1 = system: PDK1; parameters: method as in PMID 18094329; settings: inactive or IC50 >30μM; read-out: IC50 against PDK1; cited from earlier work
PKCb = system: PKCb; parameters: method as in PMID 18094329; settings: inactive or IC50 >30μM; read-out: IC50 against PKCb; cited from earlier work
IKKi = system: IKKi; parameters: method as in PMID 18094329; settings: inactive or IC50 >30μM; read-out: IC50 against IKKi; cited from earlier work
GSK3b = system: GSK3b; parameters: method as in PMID 18094329; settings: inactive or IC50 >30μM; read-out: IC50 against GSK3b; cited from earlier work
MAPK1 = system: MAPK1; parameters: method as in PMID 18094329; settings: inactive or IC50 >30μM; read-out: IC50 against MAPK1; cited from earlier work
PAK4 = system: PAK4; parameters: method as in PMID 18094329; settings: inactive or IC50 >30μM; read-out: IC50 against PAK4; cited from earlier work
[2] = system: ~30 other kinase pathways; parameters: method as in PMID 18094329; settings: including AKT, GSK3β, IKKβ, IKKi, MAPK1, MAPKAP-K2, MASK, MET, and ROCK1; cited from earlier work
Lck = system: Lck; parameters: method as in PMID 18094329; settings: at concentrations >5μM; cited from earlier work
cdk6 = system: cdk6; parameters: method as in PMID 18094329; settings: inactive or IC50 >30μM; read-out: IC50 against cdk6; cited from earlier work
TaoK3 = system: TaoK3; parameters: method as in PMID 18094329; settings: inactive or IC50 >30μM; read-out: IC50 against TaoK3; cited from earlier work
STAT-1 = STAT-1 DNA binding in BEAS-2B cells (TransAM); format: cell-based, human; settings: IFNγ and IFNγ + TNFα stimulation
Protocol: STAT phosphorylation, nuclear translocation and DNA binding was determined using TransAM assays (Actif Motif, Rixensart, Belgium). Cells were treated with JAK inhibitors for 30 min prior to stimulation for 1h. Nuclear extracts were prepared using the Actif Motif assay reagents. Briefly, the nuclear extracts (10 μg) were incubated in DNA coated plates for 1h. After washing, antibodies supplied with the TransAM kit that were specific for the active forms of STAT1, STAT3, STAT5A and STAT5B were added to the wells and incubated for a further hour. The plates were washed and a secondary HRP-labelled anti-goat Ig antibody was added and the plates incubated for an hour. After washing, the assay was developed using the TMB substrate provided and the reaction stopped using 2N sulphuric acid. The plates were read at 450nm with a reference filter of 610nm. Data were then normalised to non-stimulated cells and calculated as fold change from baseline.
After 1 h, nuclear extracts of the cells were prepared and TransAM assays for STAT-1 (panel a) and STAT-3 (panel b) were performed. Data are presented as fold change from baseline ± SEM; n = 4.

[3] = system: human T lymphocytes (JAK1/3); parameters: method as in Coe et al., 25; settings: ref Coe et al., 25; read-out: IC50 IL-2-induced P-STAT5 human T lymphocytes (JAK1/3); cited from earlier work
Protein kinase C β2 = settings: read-out: IC50 Protein kinase C β2 Km; ATP at the Km; ref Coe et al., 25; cited from earlier work
JAK3 [4] = system: JAK3; parameters: method as in Coe et al., 25; settings: ref Coe et al., 25, cited from earlier work
TrkA = system: TrkA; parameters: method as in Coe et al., 25; settings: ATP at the Km; ref Coe et al., 25; cited from earlier work
[5] = system: human T lymphocytes (JAK1/2); parameters: method as in Coe et al., 25; settings: ref Coe et al., 25; read-out: IC50 IL-12-induced IFNγ release by human T lymphocytes (JAK1/2); cited from earlier work
[6] = system: human T lymphocytes (JAK1/3); parameters: method as in Coe et al., 25; settings: ref Coe et al., 25; read-out: IC50 IL-2-induced IFNγ release by human T lymphocytes (JAK1/3); cited from earlier work
MST4 = system: MST4; parameters: method as in Coe et al., 25; settings: ATP at the Km; ref Coe et al., 25; cited from earlier work

For C[C@@H]1CCN(C(=O)N2CCCC2)C[C@@H]1N(C)c1ncnc2[nH]ccc12 [PF956980], the pIC50 (IKKb) is listed as less than 4.52, the pIC50 (INSR) is listed as less than 4.52 and the pIC50 (JAK3 [1]) is listed as roughly 8.40. The pIC50 (MET) was less than 4.52, the pIC50 (JAK2) was 6.73 and the pIC50 (cdk2) was less than 4.52. For the same molecule, the pIC50 (CHK1) was less than 4.52, the pIC50 (PDK1) was less than 4.52 and the pIC50 (PKCb) was less than 4.52. For the same molecule, the pIC50 (IKKi) was less than 4.52, the pIC50 (GSK3b) was less than 4.52 and the pIC50 (MAPK1) was less than 4.52. For the same molecule, the pIC50 (PAK4) was less than 4.52, the “effect on ~30 other kinase pathways” value [2] was “no effect” and the “effect against Lck” value (Lck) was “modest effects”. For the same molecule, the pIC50 (cdk6) was less than 4.52, the pIC50 (TaoK3) was less than 4.52 and the “effect on STAT-1 DNA binding” value (STAT-1) was “suppressed”.

For CCc1cc(O)ccc1-c1ccc2c(-c3nc4ccccc4[nH]3)n[nH]c2c1 [PF1367550, 4-(3-(1H-benzo[d]imidazol-2-yl)-1H-indazol-6-yl)-3-ethylphenol], the pIC50 [3] is listed as 7.96, the pIC50 (Protein kinase C β2) is listed as 6.18 and the pIC50 (JAK3 [4]; 1mM ATP, read-out: IC50 JAK3 1 mM) is listed as 7.85. The pIC50 (JAK3 [4]; ATP at the Km, read-out: IC50 JAK3 Km) was 9.00, the pIC50 (TrkA) was 6.64 and the pIC50 [5] was 7.35. For the same molecule, the pIC50 [6] was 7.85, the pIC50 (MST4) was 6.16 and the “effect on STAT-1 DNA binding” value (STAT-1) was “suppressed”.
